Ends that are not written are not given here.
What was measured:
E. coli O18:K1:H7 = test: Radial diffusion bactericidal assay, E. coli O18:K1:H7; format: cell-based; conditions: FIG. 11b; up to about 2000 pmol
[1] = test system: L-form of S. aureus ATCC 19640; test: Activity against L-forms of gram-positive bacteria; format: cell-based
Protocol: The bactericidal capacity of BPI peptides provided by the invention was also tested against Gram-positive bacteria (See Table VIII A). […] In addition, peptides were tested for their activity against L-forms of gram-positive bacteria, such as the L-form of S. aureus ATCC 19640.

Pseudomonas aeruginosa = test: Radial diffusion bactericidal assay, Pseudomonas aeruginosa; format: cell-based; conditions: FIG. 11a; up to about 2000 pmol
[2] = Binding of [125I]-RaLPS to peptides pre-bound to HUVEC cells; format: cell-based, human; conditions: 1 μg/mL or 3 μg/mL peptide
Protocol: In a third binding assay, a number of BPI functional domain peptides were tested for their ability to bind to radiolabeled LPS following incubation with human endothelial cells (HUVEC). This assay measures the ability to bind LPS once the BPI peptides are bound to HUVEC cells. HUVEC cells were incubated in the presence of various BPI peptides at a concentration of either 1 μg/mL or 3 μg/mL for 3 hr at 4° C. in 500 μL of a solution of D-PBS/BSA. Following this incubation, the cells were washed twice with ice-cold D-PBS/BSA and then incubated for an additional 2.5 hr at 4° C. in 500 μL of a solution of [^125I]-RaLPS (a total of 340,000 cpm at a specific activity of 4.6×10^6 cpm/μg) in D-PBS/BSA. The wells were washed three times with D-PBS/BSA, solubilized in 500 μL of 1M NaOH and the lysates counted using a gamma counter.

[3] = test system: Klebsiella pneumoniae 19645; test: Radial diffusion bactericidal assay, antibiotic resistant Klebsiella pneumoniae 19645; format: cell-based
Protocol: (§1) These studies were conducted substantially following the procedures used in Example 2.
In order to test the bactericidal activity of BPI peptides on antibiotic resistant strains of Klebsiella pneumoniae, the multi-resistant clinically isolated strain 19645 was tested as in Example 2 and above. […] This strain was obtained from the Baxter Microscan® library (Sacramento, Calif.). An overnight culture of Klebsiella pneumoniae 19645 and a non-resistant strain (ATCC 29011) were diluted 1:50 into fresh tryptic soy broth and incubated for 3 hours at 37° C. to attain log phase. The overnight cultures were tested as described in Example 2 and part A above.

[4] = test system: multi-resistant strain E. coli 19536; test: Radial diffusion bactericidal assay, multi-antibiotic resistant E. coli 19536; format: cell-based
Protocol: as §1
In order to test the bactericidal activity of BPI peptides against multi-antibiotic resistant E. coli, a multi-resistant strain E. coli 19536 (ampR 16 μg/mL; ceftazidimeR>16 μg/mL; ceftriazoneR>16 μg/mL) was tested. This strain is a clinical isolate obtained from the Baxter Microscan® library (Sacramento, Calif.). An overnight culture of E. coli 19536 was tested as described in Example 2 and part A above. Test BPI peptides were 2-fold serially diluted in D-PBS starting at about 1 mg/mL.

E. coli O86a:K61 = test: Broth bactericidal assay, E. coli O86a:K61; format: cell-based; conditions: FIG. 11j
ATIII/heparin complexes = test: Thrombin inactivation by ATIII/heparin complexes (Chromostrate anti-thrombin assay); format: biochemical; conditions: 1.0 to 100 μg/mL
Protocol: BPI functional domain peptides BPI.2, BPI.3, BPI.4, BPI.5, BPI.6, and BPI.8, along with rBPI23 as a positive control, were assayed for their effect on thrombin inactivation by ATIII/heparin complexes according to the method of Example 3 in copending and co-assigned U.S. patent application Ser. No. 08/093,202, filed Jul. 15, 1993, incorporated by reference. Specifically, a Chromostrate™ anti-thrombin assay kit (Organon Teknika Corp., Durham, N.C.) was used to examine the inhibition of purified thrombin by preformed ATIII/heparin complexes in plasma.
Briefly, the assay was performed in 96 well microtiter plates in triplicate with a final volume per well of 200 μL. Varying concentrations of the BPI functional domain peptides ranging from 1.0 μg/mL to 100 μg/mL were assayed to determine their effect on thrombin inhibition in the presence of pre-formed ATIII/heparin complexes. The order of addition of assay components was as follows: 1) a dilution series of rBPI23 or BPI functional domain peptides or thaumatin as a control protein, with final concentrations of 100, 50, 25, 10 and 1 μg/well, diluted in PBS in a final volume of 50 μL; 2) 50 μL plasma diluted 1:100 in a buffer supplied by the manufacturer, 3) 50 μl thrombin at 1 nKat/mL in a buffer supplied by the manufacturer, and 4) 50 μL chromogenic substrate at a concentration of 1 μmol/mL in water. The reaction was allowed to proceed for 10 minutes at 37° C. and stopped with the addition of 50 μL 0.1M citric acid. The colorimetric reaction was quantitated on a microplate reader as described in Example 3.

E. coli J5 (rough) = test: Broth antibacterial assay, E. coli J5; format: cell-based
Protocol: (§2) In additional experiments, broth antibacterial assays were conducted to further determine the bactericidal activity of certain of the BPI peptides. Specifically, either E. coli J5 (rough) or E. coli 0111:B4 (smooth) bacteria were selected from single colonies on agar plates and used to inoculate 5 mL of Mueller Hinton broth and incubated overnight at 37° C. with shaking. The overnight culture was diluted (˜1:50) into 5 mL fresh broth and incubated at 37° C. to log phase (˜3 hours). Bacteria were pelleted for 5 minutes at 3000 rpm (1500×g). Bacterial pellets were resuspended in 5 mL PBS and diluted to 2×10^6 cells/mL in the Mueller Hinton broth (wherein 1 OD570 unit equals 1.25×10^9 CFU/mL). The BPI functional domain peptides to be tested were diluted to 200 μg/mL in broth and serially diluted 2-fold in 96 well culture plates (100 μL volume). All items were at 2-fold final concentration and experiments were conducted in triplicate. Bacteria were added at 100 μL/well and the plates were incubated on a shaker at 37° C. for a 20 hour period. The plates were then read on an ELISA plate multiple reader at 590 nm. One of the triplicate wells from each peptide concentration was selected for colony forming unit (CFU) determination. A 30 μL aliquot was added to 270 μL of PBS and further ten-fold serial dilutions were performed. Then a 50 μL aliquot was plated on tryptic soy agar and incubated overnight. Colonies were counted and final bacterial concentrations determined. The results of these assays are depicted in FIGS. 9e (for E. coli J5) and 9f (for E. coli 0111:B4).

E. coli 0111:B4 (smooth) = test: Broth antibacterial assay, E. coli 0111:B4; format: cell-based
Protocol: as §2

Substance | bactericidal activity (in words) (E. coli O18:K1:H7) | activity against L-form bacteria (in words) [1] | bactericidal activity (in words) (Pseudomonas aeruginosa) | LPS binding while bound to HUVEC cells (in words) [2] | bactericidal activity (in words) [3] | heparin neutralization effect (in words) (ATIII/heparin complexes) | bactericidal activity (in words) (E. coli J5 (rough)) | bactericidal activity (in words) (E. coli 0111:B4 (smooth)) | other results
KSKVGWLIQLFHKK-NH2 (C-terminus assumed) [BPI.13] | showed bactericidal activity | active against these L-form bacteria | showed bactericidal activity | – | – | – | – | – | –
KSKVGWLIQLFHKKKSKVGWLIQLFHKK-NH2 (C-terminus assumed) [BPI.29] | – | – | – | retain the capacity to bind LPS while bound to HUVEC cells | – | – | – | – | –
KWKAAARFLKKWKAAARFLK [BPI.48] | – | active against these L-form bacteria | – | – | active against antibiotic resistant Klebsiella | – | – | – | bactericidal activity (in words) [4]: activity against multi-antibiotic resistant E. coli
KWKAQKRFLKKSKVGWLIQLFHKK-NH2 (C-terminus assumed) [BPI.30] | showed bactericidal activity | – | showed bactericidal activity | retain the capacity to bind LPS while bound to HUVEC cells | – | – | – | – | bactericidal activity (in words) (E. coli O86a:K61): showed bactericidal activity
KWKAQKRFLKKWKAQKRFLK-NH2 (C-terminus assumed) [BPI.7] | – | – | – | – | active against antibiotic resistant Klebsiella | significant heparin neutralization effects | significant bactericidal activity | significant bactericidal activity | –
NVGLKFSISNANIKISGKWKAQKRFLK [BPI.3] | – | – | – | – | – | most significant heparin neutralization effects | significant anti-bacterial activity | less activity | –
